# Measurements published in patent publication US10232026B2, “Vaccine for mycoplasma infection” (NATIONAL INSTITUTE OF INFECTIOUS DISEASES, priority 2009, dated 2019).
# Test system: human peripheral-blood mononuclear cells
# Experiment: Interferon γ production by peripheral-blood mononuclear cells with interleukin 2 (ELISA)
# Assay type: cell-based
# Details: lipid antigen added with interleukin 2, supernatant ELISA
# Experimental: It was found out that the production amount of interferon γ increased by 2 folds or more when mycoplasma-mimic particles (GGPL-I, GGPL-III) were added as compared with administration of interleukin 2 alone using human peripheral-blood mononuclear cells. The mononuclear cells were separated from the peripheral blood of a healthy individual, and a sample in which interleukin 2 and the lipid antigen were added to the mononuclear cells, and a sample of the mononuclear cells without adding the lipid antigen were cultured, and supernatants thereof were recovered, and the amounts of interferon γ in the supernatants were measured with an enzyme antibody immune method (ELISA method).
# Mononuclear cells were separated from the peripheral blood of a healthy individual. A sample in which interleukin 2 and mycoplasma-mimic particles (GGPL-I, or GGPL-III) were added to the mononuclear cells, and a sample of the mononuclear cells with no addition of the mycoplasma-mimic particles were cultured, and supernatants thereof were recovered, and the amounts of interferon γ in the supernatant were measured with an enzyme antibody immune method (ELISA method).
# Mononuclear cells were separated from the peripheral blood of a healthy individual. […]
structure (smiles),measurement,value
CCCCCCCCCCCCCCCC(=O)OC[C@H](CO[C@H]1O[C@H](COP(=O)(O)OCC(N)COP(=O)(O)OCC[N+](C)(C)C)[C@@H](O)[C@H](O)[C@H]1O)OC(=O)CCCCCCCCCCCCCCC (stereo partly shown) [GGPL-III],production amount of interferon γ in comparison with no addition of the lipid antigen,remarkably increased
